# Source: patent publication US4207326A, “Antimicrobial quaternary pyrazole derivatives” (Cilag-Chemie A.G., priority 1979, dated 1980)
# Tested on: S. aureus
# Experiment: Antibacterial activity: Minimum Inhibitory Concentration
# Format: cell-based, Staphylococcus aureus ATCC 6538
# Details: Staphylococcus aureus, Day 1, 37° C., 24 hours
# Experimental: (§1) The antimicrobial activity was determined by inoculation of the test microorganism into suitable growth media containing solutions of the compounds at concentrations of 100, 50, 10, 5, 1.0, 0.5 and 0.1 μg/ml. The reference antibiotics used were Gentamicin for the antibacterial tests and Amphotericin B for the antimycotic and antifungal tests. After incubation the antimicrobial activity was recorded as the Minimal Inhibitory Concentration (M.I.C.), i.e., the lowest concentration preventing macroscopically visible growth, for each test compound against each organism.
# (§2) An initial solution of each formula (I) compound to be tested in sterile distilled water was prepared at a concentration of 1000 μg/ml. With appropriate dilutions using sterile distilled water, additional solutions were prepared at concentrations of 500, 100, 50, 10, 5 and 1 μg/ml.
# (§3) They were cultured and maintained on Tryptone Soy Agar (Oxoid CM 131), with the addition of 10% horse blood for the S. pyogenes.
# (§4) To prepare the organisms as inocula for the test, slopes of this medium were streaked with the organisms and incubated at 37° C. for 24 hours. 4.5 Ml volumes of Brian-Heart Infusion Broth (Oxoid CM 225) were then inoculated with a platinum loop from the agar slope cultures and incubated for 24 hours at 37° C. The final inocula were then prepared by adding 0.1 ml aliquots of the Brain-Heart Infusion Broth cultures to 100 ml volumes of sterile physiological saline.
# (§5) (a) For the test on each of the bacterial strains and each of the test and reference compounds, a series of 8 tubes containing 4.5 ml volumes of Brain-Heart Infusion Broth (Oxoid CM 225) were prepared. To 7 of these were added 0.5 ml volumes of the final solutions of the test compouns, giving final concentrations in the broths of 100, 50, 10, 5, 1.0, 0.5 and 0.1 μg/ml. To the eighth tube in each series was added 0.5 ml of the solvent used and diluted as for the preparation of the 1000 μg/ml solution of the compound. This tube was used as the growth control. The tubes were inoculated with 0.02 ml aliquots of the inocula prepared in accordance with "(a) Bacteria" above, and incubated at 37° C. for 24 hours. The tubes were then examined for evidence of bacterial growth as shown by turbidity of the medium and the lowest concentration of the test compound which prevented bacterial growth was recorded as the Minimal Inhibitory Concentration. This test procedure was carried out on two separate days.
row,Structure (SMILES),MIC [µg/mL]
1,"CCCCCCCCCCCCCC[n+]1c(C)cc(C)n1Cc1ccc([N+](=O)[O-])cc1.[Br-] [Example 6-D, 3,5-dimethyl-2(4-nitrobenzyl)-1-tetradecyl-pyrazolium bromide]",1

# Same assay, conditions: Staphylococcus aureus, Day 2, 37° C., 24 hours
row,Structure (SMILES),MIC [µg/mL]
1,"CCCCCCCCCCCCCC[n+]1c(C)cc(C)n1Cc1ccc([N+](=O)[O-])cc1.[Br-] [Example 6-D, 3,5-dimethyl-2(4-nitrobenzyl)-1-tetradecyl-pyrazolium bromide]",0.5

# Tested on: T. rubrum
# Experiment: Antifungal activity: Minimum Inhibitory Concentration
# Format: cell-based, Trichophyton rubrum NCPF 197
# Details: Trichophyton rubrum, T. rubrum, Day 1; 27° C., one week; read-out: Minimum Inhibitory Concentration
# Experimental: as §1, §2
# (§6) The A. corymbifera, A. fumigatus, S. schenkii, T. rubrum, T. mentagrophytes, M. canis and P. verrucosa strains were all maintained on Sabouraud-Dextrose Agar (Oxoid CM 41) by incubating for 14 days at 27° C. To prepare the inocula 30 ml volumes of Sabouraud-Liquid medium (Oxoid CM 147) were inoculated from the agar cultures and incubated at 27° C. until heavy uniform growth resulted. The mycelial growth was then broken up by shaking with glass beads.
# (§7) 1 Ml aliquots were removed from each of the cultures for the purpose of making viable counts and the cultures were then held at 4° C. The viable counts were made by preparing serial ten-fold dilutions of the cultures in sterile physiological saline and spreading on plates of Sabouraud-Dextrose Agar (Oxoid CM 41) which were then incubated at 27° C. for 14 days. When the viable counts had confirmed that each of the inocula contained approximately 10^6 colony forming units (C.F.U.) per ml the cultures were withdrawn from the refrigerator and used as the inocula for the tests.
# (§8) (c) For the tests on each of the remaining seven strains and each of the test and reference compounds, a series of 8 tubes containing 4.5 ml volumes of Sabouraud-Liquid Medium (Oxoid CM 147) were prepared. To 7 of these were added 0.5 ml volumes of the final solutions of the test compounds, giving final concentrations in the broths of 100, 50, 10, 5, 1.0, 0.5 and 0.1 μg/ml. To the eighth tube in each series was added 0.5 ml of the solvent used and diluted as for the preparation of the 500 μg/ml solution of the compound. This tube was used as a growth control. The tubes were then inoculated with 0.1 ml aliquots of the inocula prepared as in "(b) Fungi" above. The tubes were then incubated at 27° C. with continuous shaking for a period of one week. The tubes were then examined for evidence of growth as shown by the presence of mycelial growth in the medium and the lowest concentration of the test compound which prevented fungal growth was recorded as the Minimal Inhibitory Concentration. This test procedure was carried out on two separate days.
row,Structure (SMILES),MIC [µg/mL]
1,"CCCCCCCCCCCCCC[n+]1c(C)cc(C)n1Cc1ccc([N+](=O)[O-])cc1.[Br-] [Example 6-D, 3,5-dimethyl-2(4-nitrobenzyl)-1-tetradecyl-pyrazolium bromide]",10

# Same assay, conditions: Trichophyton rubrum, T. rubrum, Day 2; 27° C., one week; read-out: Minimum Inhibitory Concentration
row,Structure (SMILES),MIC [µg/mL]
1,"CCCCCCCCCCCCCC[n+]1c(C)cc(C)n1Cc1ccc([N+](=O)[O-])cc1.[Br-] [Example 6-D, 3,5-dimethyl-2(4-nitrobenzyl)-1-tetradecyl-pyrazolium bromide]",10

# Tested on: P. aeruginosa
# Experiment: Antibacterial activity: Minimum Inhibitory Concentration
# Format: cell-based, Pseudomonas aeruginosa ATCC 9027
# Details: Pseudomonas aeruginosa; P. aeruginosa, Day 1; 37° C., 24 hours; read-out: Minimum Inhibitory Concentration
# Experimental: as §1, §2, §3, §4, §5
row,Structure (SMILES),MIC [µg/mL]
1,"CCCCCCCCCCCCCC[n+]1c(C)cc(C)n1Cc1ccc([N+](=O)[O-])cc1.[Br-] [Example 6-D, 3,5-dimethyl-2(4-nitrobenzyl)-1-tetradecyl-pyrazolium bromide]",100

# Same assay, conditions: Pseudomonas aeruginosa; P. aeruginosa, Day 2; 37° C., 24 hours; read-out: Minimum Inhibitory Concentration
row,Structure (SMILES),MIC [µg/mL]
1,"CCCCCCCCCCCCCC[n+]1c(C)cc(C)n1Cc1ccc([N+](=O)[O-])cc1.[Br-] [Example 6-D, 3,5-dimethyl-2(4-nitrobenzyl)-1-tetradecyl-pyrazolium bromide]",50

# Tested on: A. fumigatus
# Experiment: Antifungal activity: Minimum Inhibitory Concentration
# Format: cell-based, Aspergillus fimigatus (A. fumigatus) NCPF 2140
# Details: Aspergillus fumigatus, A. fumigatus, Day 1; 27° C., one week; read-out: Minimum Inhibitory Concentration
# Experimental: as §1, §2, §6, §7, §8
row,Structure (SMILES),MIC [µg/mL]
1,"CCCCCCCCCCCCCC[n+]1c(C)cc(C)n1Cc1ccc([N+](=O)[O-])cc1.[Br-] [Example 6-D, 3,5-dimethyl-2(4-nitrobenzyl)-1-tetradecyl-pyrazolium bromide]",50

# Same assay, conditions: Aspergillus fumigatus, A. fumigatus, Day 2; 27° C., one week; read-out: Minimum Inhibitory Concentration
row,Structure (SMILES),MIC [µg/mL]
1,"CCCCCCCCCCCCCC[n+]1c(C)cc(C)n1Cc1ccc([N+](=O)[O-])cc1.[Br-] [Example 6-D, 3,5-dimethyl-2(4-nitrobenzyl)-1-tetradecyl-pyrazolium bromide]",50

# Tested on: S. schenkii
# Experiment: as above
# Format: cell-based, Sporotrichon schenkii NCPF 3182
# Details: S. schenkii, Day 1; 27° C., one week; read-out: Minimum Inhibitory Concentration
# Experimental: as §1, §2, §6, §7, §8
row,Structure (SMILES),MIC [µg/mL]
1,"CCCCCCCCCCCCCC[n+]1c(C)cc(C)n1Cc1ccc([N+](=O)[O-])cc1.[Br-] [Example 6-D, 3,5-dimethyl-2(4-nitrobenzyl)-1-tetradecyl-pyrazolium bromide]",5

# Same assay, conditions: S. schenkii, Day 2; 27° C., one week; read-out: Minimum Inhibitory Concentration
row,Structure (SMILES),MIC [µg/mL]
1,"CCCCCCCCCCCCCC[n+]1c(C)cc(C)n1Cc1ccc([N+](=O)[O-])cc1.[Br-] [Example 6-D, 3,5-dimethyl-2(4-nitrobenzyl)-1-tetradecyl-pyrazolium bromide]",5

# Tested on: C. neoformans
# Experiment: Antimycotic activity: Minimum Inhibitory Concentration
# Format: cell-based, Cryptococcus neoformans NCPF 3184
# Details: Cryptococcus neoformans, pH 5.5, C. neoformans, Day 1; pH 5.5, 30° C., 72 hours; read-out: Minimum Inhibitory Concentrations
# Experimental: as §1, §2
# The C. neoformans was also maintained on Sabouraud-Dextrose Agar (Oxoid CM 41), but in this case cultures for the preparation of the inoculum were incubated on this agar at 30° C. for 48 hours. A 4.5 ml volume of citric acid-phosphate buffer pH 5.5 plus Yeast-Nitrogen Base (Difco-0392-15) was then inoculated from the agar culture and incubated at 30° C. for 48 hours. A 0.1 ml aliquot of this culture was then added to 100 ml sterile physiological saline to give the final inoculum.
# (b) For the tests on each of the C. albicans, C. tropicalis and C. neoformans strains and each of the test and reference compounds, a series of 8 tubes containing 4.5 ml volumes of citric acid-phosphate buffer pH 5.5 plus Yeast-Nitrogen Base (Difco 0392-15) were prepared. To 7 of these were added 0.5 ml volumes of the final solutions of the test compounds, giving final concentrations in the broths of 100, 50, 10, 5, 1.0, 0.5 and 0.1 μg/ml. To the eighth tube in each series was added 0.5 ml of the solvent used and diluted as for the preparation of the 1000 μg/ml solution of the compound. This tube was used as the growth control. The tubes were then inoculated with 0.1 ml aliquots of the inocula prepared as in "(b) Fungi" above. The tubes inoculated with the C. albicans and C. tropicalis were inoculated at 37° C. for 72 hours and the tubes inoculated with the C. neoformans straim were incubated at 30° C. for 72 hours. […] The tubes were then examined for evidence of growth as shown by turbidity of the medium and the lowest concentration of the test compound which prevented fungal growth was recorded as the Minimal Inhibitory Concentration. This test procedure was carried out on two separate days.
row,Structure (SMILES),MIC [µg/mL]
1,"CCCCCCCCCCCCCC[n+]1c(C)cc(C)n1Cc1ccc([N+](=O)[O-])cc1.[Br-] [Example 6-D, 3,5-dimethyl-2(4-nitrobenzyl)-1-tetradecyl-pyrazolium bromide]",0.5

# Same assay, conditions: Cryptococcus neoformans, pH 5.5, C. neoformans, Day 2; pH 5.5, 30° C., 72 hours; read-out: Minimum Inhibitory Concentrations
row,Structure (SMILES),MIC [µg/mL]
1,"CCCCCCCCCCCCCC[n+]1c(C)cc(C)n1Cc1ccc([N+](=O)[O-])cc1.[Br-] [Example 6-D, 3,5-dimethyl-2(4-nitrobenzyl)-1-tetradecyl-pyrazolium bromide]",0.5
